Each block holds one molecule with its values, some of them ahead of it.
Experiments:
[1] = biological target: T1, Rho-associated protein kinase 2 (Homo sapiens, UniProt O75116); experiment: Inhibition of ROCK2 (unknown origin)
[2] = biological target: Rho-associated protein kinase 1 (Homo sapiens, UniProt Q13464); experiment: Inhibition of ROCK1 (unknown origin)
[3] = biological target: T2, Adenosine receptor A2a (Homo sapiens, UniProt P29274); experiment: Displacement of [3H]-[…] from human recombinant adenosine A2A receptor
T2 sequence (P29274 whole entry): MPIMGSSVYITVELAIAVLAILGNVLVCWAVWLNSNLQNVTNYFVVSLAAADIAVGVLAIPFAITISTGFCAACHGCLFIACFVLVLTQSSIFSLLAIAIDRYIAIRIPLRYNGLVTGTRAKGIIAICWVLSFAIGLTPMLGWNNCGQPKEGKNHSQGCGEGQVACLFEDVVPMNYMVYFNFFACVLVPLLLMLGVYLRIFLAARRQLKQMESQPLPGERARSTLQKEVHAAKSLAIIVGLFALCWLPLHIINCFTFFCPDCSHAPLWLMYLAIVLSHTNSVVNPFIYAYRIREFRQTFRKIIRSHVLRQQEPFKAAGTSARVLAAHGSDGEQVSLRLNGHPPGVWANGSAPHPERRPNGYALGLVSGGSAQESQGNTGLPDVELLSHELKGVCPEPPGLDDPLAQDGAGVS

[4] = biological target: T3, Adenosine receptor A3 (Homo sapiens, UniProt P0DMS8); experiment: Antagonist activity at human adenosine A3 receptor
T3 sequence (P0DMS8 whole entry): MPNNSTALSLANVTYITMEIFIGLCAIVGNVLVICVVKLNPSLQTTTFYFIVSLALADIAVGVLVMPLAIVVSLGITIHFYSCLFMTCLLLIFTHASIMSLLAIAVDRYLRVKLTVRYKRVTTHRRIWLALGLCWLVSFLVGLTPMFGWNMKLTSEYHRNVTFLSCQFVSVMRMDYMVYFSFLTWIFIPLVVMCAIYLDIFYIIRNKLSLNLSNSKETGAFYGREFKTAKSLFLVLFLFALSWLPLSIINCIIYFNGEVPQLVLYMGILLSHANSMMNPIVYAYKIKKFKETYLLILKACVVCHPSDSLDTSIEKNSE

[5] = biological target: T1, Rho-associated protein kinase 2; experiment: Inhibition of ROCK2 (unknown origin) using STK2 as substrate after 1 hr
[6] = biological target: T2, Adenosine receptor A2a; experiment: Displacement of 2-[2-(4-amino-3-[125I]iodophenyl)ethylamino]adenosine from human recombinant adenosine A2A receptor expressed in HEK293 cells; assay type: cell-based

T1 sequence (O75116 whole entry): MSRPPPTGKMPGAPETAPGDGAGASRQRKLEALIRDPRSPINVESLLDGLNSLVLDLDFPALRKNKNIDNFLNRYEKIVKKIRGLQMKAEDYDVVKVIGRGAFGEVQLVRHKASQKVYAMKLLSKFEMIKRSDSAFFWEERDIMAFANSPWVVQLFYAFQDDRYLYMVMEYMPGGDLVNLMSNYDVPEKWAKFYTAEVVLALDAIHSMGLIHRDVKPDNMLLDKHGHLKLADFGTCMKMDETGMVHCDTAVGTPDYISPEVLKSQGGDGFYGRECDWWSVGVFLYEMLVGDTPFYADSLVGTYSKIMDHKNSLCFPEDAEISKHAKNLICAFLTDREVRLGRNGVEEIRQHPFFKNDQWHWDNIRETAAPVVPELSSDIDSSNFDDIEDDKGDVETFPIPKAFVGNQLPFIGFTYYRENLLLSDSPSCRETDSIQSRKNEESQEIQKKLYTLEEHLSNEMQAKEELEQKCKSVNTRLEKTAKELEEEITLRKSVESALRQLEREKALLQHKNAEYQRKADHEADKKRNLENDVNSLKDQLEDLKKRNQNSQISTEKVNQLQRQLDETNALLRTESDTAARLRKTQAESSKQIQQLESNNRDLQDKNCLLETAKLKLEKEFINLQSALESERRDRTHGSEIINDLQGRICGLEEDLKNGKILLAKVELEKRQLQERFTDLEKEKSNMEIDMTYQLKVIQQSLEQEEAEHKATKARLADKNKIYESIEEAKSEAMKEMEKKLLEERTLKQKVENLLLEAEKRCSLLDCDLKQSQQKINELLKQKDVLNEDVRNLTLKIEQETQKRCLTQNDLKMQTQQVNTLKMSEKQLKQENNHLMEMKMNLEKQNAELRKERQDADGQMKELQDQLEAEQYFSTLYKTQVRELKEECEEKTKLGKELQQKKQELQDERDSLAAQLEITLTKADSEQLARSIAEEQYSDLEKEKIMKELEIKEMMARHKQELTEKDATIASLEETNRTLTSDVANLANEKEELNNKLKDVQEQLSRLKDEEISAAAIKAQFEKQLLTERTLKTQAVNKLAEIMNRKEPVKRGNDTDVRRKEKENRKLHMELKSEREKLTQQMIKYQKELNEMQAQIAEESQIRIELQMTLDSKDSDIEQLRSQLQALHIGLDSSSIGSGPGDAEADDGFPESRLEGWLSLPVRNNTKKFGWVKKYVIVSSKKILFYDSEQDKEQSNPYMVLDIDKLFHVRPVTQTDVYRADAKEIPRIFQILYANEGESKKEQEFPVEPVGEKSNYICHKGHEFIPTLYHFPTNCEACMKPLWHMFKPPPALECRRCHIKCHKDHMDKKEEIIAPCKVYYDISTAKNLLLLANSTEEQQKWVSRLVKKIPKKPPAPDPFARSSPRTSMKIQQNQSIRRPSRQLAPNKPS
Rho-associated protein kinase 1, sequence (Q13464 whole entry): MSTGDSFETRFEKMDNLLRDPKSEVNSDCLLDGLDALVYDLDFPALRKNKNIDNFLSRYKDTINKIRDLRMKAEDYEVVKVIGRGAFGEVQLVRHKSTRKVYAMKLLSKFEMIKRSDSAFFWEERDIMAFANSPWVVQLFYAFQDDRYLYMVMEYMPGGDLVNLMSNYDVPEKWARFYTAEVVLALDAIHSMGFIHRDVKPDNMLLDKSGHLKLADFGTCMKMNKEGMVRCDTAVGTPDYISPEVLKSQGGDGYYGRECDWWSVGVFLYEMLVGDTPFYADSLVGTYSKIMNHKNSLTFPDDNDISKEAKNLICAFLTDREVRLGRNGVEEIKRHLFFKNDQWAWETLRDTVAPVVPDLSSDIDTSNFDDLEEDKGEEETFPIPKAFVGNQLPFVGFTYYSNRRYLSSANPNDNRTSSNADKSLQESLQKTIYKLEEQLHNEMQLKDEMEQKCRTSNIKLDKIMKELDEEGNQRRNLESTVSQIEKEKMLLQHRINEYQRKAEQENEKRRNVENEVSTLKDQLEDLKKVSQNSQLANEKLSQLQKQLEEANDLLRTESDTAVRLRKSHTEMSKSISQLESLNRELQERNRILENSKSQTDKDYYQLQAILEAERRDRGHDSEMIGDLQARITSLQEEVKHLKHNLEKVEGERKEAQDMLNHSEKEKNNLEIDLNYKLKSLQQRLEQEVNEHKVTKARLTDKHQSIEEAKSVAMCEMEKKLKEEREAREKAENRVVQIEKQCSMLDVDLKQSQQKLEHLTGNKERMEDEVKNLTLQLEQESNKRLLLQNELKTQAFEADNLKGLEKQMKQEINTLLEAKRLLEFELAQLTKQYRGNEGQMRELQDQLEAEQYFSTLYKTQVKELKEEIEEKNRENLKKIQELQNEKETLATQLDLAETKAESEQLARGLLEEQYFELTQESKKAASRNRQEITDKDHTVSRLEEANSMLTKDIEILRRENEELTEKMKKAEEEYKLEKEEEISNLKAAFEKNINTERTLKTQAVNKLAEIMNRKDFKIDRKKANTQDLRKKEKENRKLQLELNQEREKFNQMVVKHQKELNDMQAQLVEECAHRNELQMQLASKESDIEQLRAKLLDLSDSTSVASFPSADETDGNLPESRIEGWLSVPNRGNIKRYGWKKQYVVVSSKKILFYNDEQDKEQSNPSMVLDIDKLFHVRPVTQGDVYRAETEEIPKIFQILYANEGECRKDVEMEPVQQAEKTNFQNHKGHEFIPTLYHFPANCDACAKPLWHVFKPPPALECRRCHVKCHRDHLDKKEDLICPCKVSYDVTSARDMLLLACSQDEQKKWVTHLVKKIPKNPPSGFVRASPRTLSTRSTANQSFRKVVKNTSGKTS

Structure (SMILES): NC(C(=O)Nc1ccc2cnccc2c1)c1ccccc1 (stereo not given)
IC50 [1]: 1.5 nM
IC50 [2]: 6 nM

Structure (SMILES): C[C@H]1CNCCCN1S(=O)(=O)c1cccc2cncc(F)c12
IC50 [1]: 19 nM

Structure (SMILES): CNC(=O)[C@H]1O[C@@H](n2cnc3c(NCc4cccc(I)c4)nc(Cl)nc32)[C@H](OC(C)=O)[C@@H]1OC(C)=O
Ki [4]: 910 nM

Structure (SMILES): CN(C)CCOc1cc(-c2cn[nH]c2)ccc1NC(=O)C1COc2ccccc2O1 (stereo not given) [SR-3677]
IC50 [5]: 3 nM

Structure (SMILES): NCC(C(=O)Nc1ccc2cnccc2c1)c1ccccc1 (stereo not given)
IC50 [1]: 1.1 nM
IC50 [2]: 1.2 nM

Now from value to molecule:

Ki [3]: 31.8 nM
Structure (SMILES): CCCCCCC#Cc1nc(N)c2ncn([C@@H]3O[C@H](CO)[C@@H](O)[C@H]3O)c2n1

Ki [3]: 49.3 nM
Structure (SMILES): N#CCCCCC#Cc1nc(N)c2ncn([C@@H]3O[C@H](CO)[C@@H](O)[C@H]3O)c2n1

Kd [6]: 0.7 nM
Structure (SMILES): COC(=O)N1CCC(CC#Cc2nc(N)c3ncn([C@@H]4O[C@H](C(=O)NC5CC5)[C@@H](O)[C@H]4O)c3n2)CC1 [EVODENOSON]
